In patent US20150005281A1, “PYRIMIDINE-2,4-DIAMINE DERIVATIVES AS KINASE INHIBITORS” (Cellzome Limited, priority 2011, published 2015):

What was measured:
Type in all cases: binding
[1] = biological target: T1, JAK1 (Homo sapiens, UniProt P23458); assay: Kinobeads assay with immunodetection, JAK1; conditions: for IC50: Kinobeads assay, mixed Molt4/Ramos lysate, read-out: Inhibition values (IC50) JAK1
T1 construct: endogenous in cells; host or cells: Molt4 (ATCC CRL-1582) and Ramos (ATCC CRL-1596) cells; mixed lysate 1:2
T1 sequence (P23458 whole entry): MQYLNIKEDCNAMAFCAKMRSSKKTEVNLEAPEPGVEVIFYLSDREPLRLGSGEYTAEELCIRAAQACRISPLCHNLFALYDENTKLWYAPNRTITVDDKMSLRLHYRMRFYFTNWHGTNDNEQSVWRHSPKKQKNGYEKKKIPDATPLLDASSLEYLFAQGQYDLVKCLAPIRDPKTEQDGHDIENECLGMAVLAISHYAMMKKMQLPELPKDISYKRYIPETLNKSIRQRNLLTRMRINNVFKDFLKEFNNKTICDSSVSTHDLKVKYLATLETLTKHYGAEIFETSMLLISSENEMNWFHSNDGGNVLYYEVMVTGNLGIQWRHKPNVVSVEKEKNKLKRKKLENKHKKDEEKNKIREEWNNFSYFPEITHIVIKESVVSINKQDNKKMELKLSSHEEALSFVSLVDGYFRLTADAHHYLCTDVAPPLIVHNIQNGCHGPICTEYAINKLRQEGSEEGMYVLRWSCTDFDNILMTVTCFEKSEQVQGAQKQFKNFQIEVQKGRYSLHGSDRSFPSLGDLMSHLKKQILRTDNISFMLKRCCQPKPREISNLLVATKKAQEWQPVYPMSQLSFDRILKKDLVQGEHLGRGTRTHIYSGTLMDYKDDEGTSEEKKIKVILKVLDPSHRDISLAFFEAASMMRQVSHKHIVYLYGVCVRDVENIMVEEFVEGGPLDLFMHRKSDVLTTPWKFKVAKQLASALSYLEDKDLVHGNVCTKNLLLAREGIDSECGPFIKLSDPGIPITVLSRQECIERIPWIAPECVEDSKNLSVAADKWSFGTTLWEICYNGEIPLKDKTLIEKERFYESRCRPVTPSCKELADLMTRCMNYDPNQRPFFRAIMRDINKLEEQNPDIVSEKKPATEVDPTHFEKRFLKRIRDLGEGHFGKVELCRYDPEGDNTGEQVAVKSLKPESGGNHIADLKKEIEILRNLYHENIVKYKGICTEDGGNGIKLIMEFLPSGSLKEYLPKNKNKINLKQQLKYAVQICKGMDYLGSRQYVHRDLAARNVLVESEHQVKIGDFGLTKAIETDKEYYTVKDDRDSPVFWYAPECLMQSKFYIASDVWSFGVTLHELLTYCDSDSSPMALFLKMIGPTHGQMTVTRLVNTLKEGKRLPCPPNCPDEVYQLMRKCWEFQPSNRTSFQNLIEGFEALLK
Method: (§1) Determination of the Effect of the Compounds According to the Invention on Janus Kinases (JAK Family) in Kinobeads™ Assays with Immunodetection of Kinases
(§2) The compounds of the present invention as described in the previous examples were tested in a Kinobeads™ assay as described for ZAP-70 (WO-A 2007/137867). Briefly, test compounds (at various concentrations) and the affinity matrix with the immobilized aminopyrido-pyrimidine ligand 24 were added to cell lysate aliquots and allowed to bind to the proteins in the lysate sample. After the incubation time the beads with captured proteins were separated from the lysate. Bound proteins were then eluted and the presence of JAK1, JAK2, JAK3 and TYK2 was detected and quantified using specific antibodies in a dot blot procedure and the Odyssey infrared detection system. Dose response curves for individual kinases were generated and IC50 values calculated. Kinobeads™ assays for ZAP-70 (WO-A 2007/137867) and for kinase selectivity profiling (WO-A 2006/134056) have been previously described.
(§3) The affinity matrix was washed two times with 15 mL of 1×DP buffer containing 0.2% NP40 (IGEPAL® CA-630, Sigma, #13021) and then resuspended in 1×DP buffer containing 0.2% NP40 (3% beads slurry).
(§4) 5×DP buffer: 250 mM Tris-HCl pH 7.4, 25% Glycerol, 7.5 mM MgCl2, 750 mM NaCl, 5 mM Na3VO4; filter the 5×DP buffer through a 0.22 μm filter and store in aliquots at −80° C. The 5×DP buffer is diluted with H2O to 1×DP buffer containing 1 mM DTT and 25 mM NaF.
(§5) Stock solutions of test compounds were prepared in DMSO. In a 96 well plate 30 μL solution of diluted test compounds at 5 mM in DMSO were prepared. Starting with this solution a 1:3 dilution series (9 steps) was prepared. For control experiments (no test compound) a buffer containing 2% DMSO was used.
(§6) Molt4 cells (ATCC catalogue number CRL-1582) and Ramos cells (ATCC catalogue number CRL-1596) were grown in 1 L Spinner flasks (Integra Biosciences, #182101) in suspension in RPMI 1640 medium (Invitrogen, #21875-034) supplemented with 10% Fetal Bovine Serum (Invitrogen) at a density between 0.15×10^6 and 1.2×10^6 cells/mL. Cells were harvested by centrifugation, washed once with 1×PBS buffer (Invitrogen, #14190-094) and cell pellets were frozen in liquid nitrogen and subsequently stored at −80° C. Cells were homogenized in a Potter S homogenizer in lysis buffer: 50 mM Tris-HCl, 0.8% NP40, 5% glycerol, 150 mM NaCl, 1.5 mM MgCl2, 25 mM NaF, 1 mM sodium vanadate, 1 mM DTT, pH 7.5. One complete EDTA-free tablet (protease inhibitor cocktail, Roche Diagnostics, 1873580) per 25 ml, buffer was added. The material was dounced 10 times using a mechanized POTTER S, transferred to 50 mL falcon tubes, incubated for 30 minutes on ice and spun down for 10 minutes at 20,000 g at 4° C. (10,000 rpm in Sorvall SLA600, precooled). The supernatant was transferred to an ultracentrifuge (UZ)-polycarbonate tube (Beckmann, 355654) and spun for 1 hour at 100.000 g at 4° C. (33.500 rpm in Ti50.2, precooled). The supernatant was transferred again to a fresh 50 mL falcon tube, the protein concentration was determined by a Bradford assay (BioRad) and samples containing 50 mg of protein per aliquot were prepared. The samples were immediately used for experiments or frozen in liquid nitrogen and stored frozen at −80° C.
(§7) Cell lysate (approximately 50 mg protein per plate) was thawed in a water bath at room temperature and then stored on ice. To the thawed cell lysate 1×DP 0.8% NP40 buffer containing protease inhibitors (1 tablet for 25 mL buffer; EDTA-free protease inhibitor cocktail; Roche Diagnostics 1873580) was added in order to reach a final protein concentration of 10 mg/mL total protein. The diluted cell lysate was stored on ice. Mixed Molt4/Ramos lysate was prepared by combining one volume of Molt4 lysate and two volumes of Ramos lysate (ratio 1:2). […]

[2] = biological target: T2, JAK2 (Homo sapiens, UniProt O60674); assay: Kinobeads assay with immunodetection, JAK2; conditions: mixed Molt4/Ramos lysate, read-out: Inhibition values (IC50) JAK2
T2 construct: endogenous in cells; host or cells: Molt4 (ATCC CRL-1582) and Ramos (ATCC CRL-1596) cells; mixed lysate 1:2
T2 sequence (O60674 whole entry): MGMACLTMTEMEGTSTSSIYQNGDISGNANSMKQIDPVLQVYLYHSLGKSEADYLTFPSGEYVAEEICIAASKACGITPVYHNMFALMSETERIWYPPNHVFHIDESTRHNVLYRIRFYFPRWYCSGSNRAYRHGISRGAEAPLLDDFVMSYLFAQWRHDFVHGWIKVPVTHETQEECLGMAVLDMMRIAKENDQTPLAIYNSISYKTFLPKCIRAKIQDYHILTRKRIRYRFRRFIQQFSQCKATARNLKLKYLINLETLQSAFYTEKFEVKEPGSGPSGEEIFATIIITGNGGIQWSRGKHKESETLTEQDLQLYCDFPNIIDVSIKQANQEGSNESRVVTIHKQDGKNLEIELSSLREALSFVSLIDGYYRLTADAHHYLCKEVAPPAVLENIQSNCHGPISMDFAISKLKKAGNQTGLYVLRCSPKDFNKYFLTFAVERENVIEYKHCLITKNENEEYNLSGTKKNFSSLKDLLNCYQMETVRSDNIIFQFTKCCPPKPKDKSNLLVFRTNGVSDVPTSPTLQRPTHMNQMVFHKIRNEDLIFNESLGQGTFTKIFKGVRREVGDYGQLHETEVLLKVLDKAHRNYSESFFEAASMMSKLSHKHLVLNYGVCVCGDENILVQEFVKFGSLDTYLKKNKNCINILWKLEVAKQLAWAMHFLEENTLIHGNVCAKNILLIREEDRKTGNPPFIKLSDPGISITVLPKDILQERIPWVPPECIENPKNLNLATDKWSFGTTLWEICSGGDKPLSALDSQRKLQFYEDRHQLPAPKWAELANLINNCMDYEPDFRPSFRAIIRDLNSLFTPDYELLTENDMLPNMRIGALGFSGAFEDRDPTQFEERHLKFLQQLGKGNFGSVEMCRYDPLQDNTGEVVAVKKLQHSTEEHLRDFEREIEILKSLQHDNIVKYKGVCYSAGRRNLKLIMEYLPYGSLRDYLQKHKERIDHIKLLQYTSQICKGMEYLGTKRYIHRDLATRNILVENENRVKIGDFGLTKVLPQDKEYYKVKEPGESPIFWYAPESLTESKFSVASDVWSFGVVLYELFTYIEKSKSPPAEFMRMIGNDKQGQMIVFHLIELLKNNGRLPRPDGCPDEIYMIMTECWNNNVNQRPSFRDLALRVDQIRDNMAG
Method: as §1, §2, §3, §4, §5, §6, §7

[3] = biological target: T3, JAK3 (Homo sapiens, UniProt P52333); assay: Kinobeads assay with immunodetection, JAK3; conditions: for IC50: Kinobeads assay, mixed Molt4/Ramos lysate, read-out: Inhibition values (IC50) JAK3
T3 construct: endogenous in cells; host or cells: Molt4 (ATCC CRL-1582) and Ramos (ATCC CRL-1596) cells; mixed lysate 1:2
T3 sequence (P52333 1-1124): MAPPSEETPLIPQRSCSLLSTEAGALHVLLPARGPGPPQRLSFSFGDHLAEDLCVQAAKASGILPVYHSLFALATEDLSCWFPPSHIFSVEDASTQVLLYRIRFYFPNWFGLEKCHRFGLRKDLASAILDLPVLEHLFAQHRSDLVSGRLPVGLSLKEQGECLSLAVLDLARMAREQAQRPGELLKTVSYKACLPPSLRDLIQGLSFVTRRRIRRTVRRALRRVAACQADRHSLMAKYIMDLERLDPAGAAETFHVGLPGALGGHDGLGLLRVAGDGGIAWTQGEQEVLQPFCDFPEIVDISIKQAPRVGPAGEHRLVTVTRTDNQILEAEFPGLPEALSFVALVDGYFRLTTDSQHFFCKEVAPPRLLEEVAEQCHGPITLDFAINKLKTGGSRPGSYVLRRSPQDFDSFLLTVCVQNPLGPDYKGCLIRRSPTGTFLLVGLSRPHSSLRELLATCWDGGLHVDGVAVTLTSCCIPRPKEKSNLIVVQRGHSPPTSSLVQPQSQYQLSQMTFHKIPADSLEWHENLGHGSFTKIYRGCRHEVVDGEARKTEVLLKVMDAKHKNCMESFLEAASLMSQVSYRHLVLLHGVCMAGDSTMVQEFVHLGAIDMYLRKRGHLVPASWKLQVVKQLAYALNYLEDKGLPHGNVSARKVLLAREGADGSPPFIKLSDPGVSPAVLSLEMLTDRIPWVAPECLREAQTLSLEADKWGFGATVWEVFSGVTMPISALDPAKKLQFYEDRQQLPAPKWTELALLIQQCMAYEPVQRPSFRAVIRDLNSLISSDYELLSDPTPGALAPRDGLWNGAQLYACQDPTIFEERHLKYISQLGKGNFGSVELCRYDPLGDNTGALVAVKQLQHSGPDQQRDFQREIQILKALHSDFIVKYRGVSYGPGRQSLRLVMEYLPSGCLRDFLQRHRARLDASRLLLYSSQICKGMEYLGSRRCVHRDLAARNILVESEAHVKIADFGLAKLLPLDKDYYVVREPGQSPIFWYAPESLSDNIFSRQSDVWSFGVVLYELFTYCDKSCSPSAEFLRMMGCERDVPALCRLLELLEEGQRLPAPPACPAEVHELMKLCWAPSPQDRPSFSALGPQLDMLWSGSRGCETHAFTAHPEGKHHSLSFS
Method: as §1, §2, §3, §4, §5, §6, §7

[4] = biological target: T4, TYK2 (Homo sapiens, UniProt P29597); assay: Kinobeads assay with immunodetection, TYK2; conditions: for IC50: Kinobeads assay, mixed Molt4/Ramos lysate, read-out: Inhibition values (IC50) Tyk2
T4 construct: endogenous in cells; host or cells: Molt4 (ATCC CRL-1582) and Ramos (ATCC CRL-1596) cells; mixed lysate 1:2
T4 sequence (P29597 whole entry): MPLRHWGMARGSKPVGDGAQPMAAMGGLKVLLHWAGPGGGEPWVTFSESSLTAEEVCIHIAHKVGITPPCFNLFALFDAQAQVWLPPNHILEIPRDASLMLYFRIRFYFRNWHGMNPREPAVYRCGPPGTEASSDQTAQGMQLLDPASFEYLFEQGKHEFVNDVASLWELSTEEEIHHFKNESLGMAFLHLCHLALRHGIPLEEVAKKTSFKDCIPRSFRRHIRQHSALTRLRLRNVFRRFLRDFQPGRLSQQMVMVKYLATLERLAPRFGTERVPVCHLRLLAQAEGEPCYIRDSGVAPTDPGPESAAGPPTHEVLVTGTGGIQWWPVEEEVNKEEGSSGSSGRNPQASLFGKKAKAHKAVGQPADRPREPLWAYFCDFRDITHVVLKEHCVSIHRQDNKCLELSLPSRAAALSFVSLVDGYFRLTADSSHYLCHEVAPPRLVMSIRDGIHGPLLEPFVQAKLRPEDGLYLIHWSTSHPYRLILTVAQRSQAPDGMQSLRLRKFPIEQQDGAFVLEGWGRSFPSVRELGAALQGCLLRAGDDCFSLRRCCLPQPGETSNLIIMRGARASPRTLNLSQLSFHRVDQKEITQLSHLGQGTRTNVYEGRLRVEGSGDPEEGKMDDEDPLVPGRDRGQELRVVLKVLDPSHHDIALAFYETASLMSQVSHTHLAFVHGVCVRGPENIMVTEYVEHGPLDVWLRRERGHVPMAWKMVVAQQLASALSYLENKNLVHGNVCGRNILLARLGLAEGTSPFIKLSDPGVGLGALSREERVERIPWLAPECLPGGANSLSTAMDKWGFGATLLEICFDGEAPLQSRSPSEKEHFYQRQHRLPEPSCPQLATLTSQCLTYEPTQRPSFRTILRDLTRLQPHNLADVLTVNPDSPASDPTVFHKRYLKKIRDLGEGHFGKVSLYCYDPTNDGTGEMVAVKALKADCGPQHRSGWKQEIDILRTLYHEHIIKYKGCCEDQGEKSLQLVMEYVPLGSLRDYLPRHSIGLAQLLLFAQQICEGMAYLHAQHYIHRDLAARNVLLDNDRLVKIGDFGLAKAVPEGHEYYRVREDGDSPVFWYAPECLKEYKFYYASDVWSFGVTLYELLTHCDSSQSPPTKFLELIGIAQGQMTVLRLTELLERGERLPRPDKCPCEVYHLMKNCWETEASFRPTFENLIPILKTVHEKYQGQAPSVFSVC
Method: as §1, §2, §3, §4, §5, §6, §7

Structure (SMILES) | Selectivity ratio over JAK2, JAK1 [1] | IC50 [1] | IC50 [2] | IC50 [3] | IC50 [4] | Selectivity ratio over JAK2, Tyk2 [4] | Selectivity ratio over JAK2, JAK3 ([3]; JAK3 over JAK2)
OCCn1cc(Nc2ncc(Cl)c(NCC3CCNC3)n2)cn1 (stereo in doubt) [Example 79, (R)-2-(4-((5-chloro-4-((pyrrolidin-3-ylmethyl)amino)pyrimidin-2-yl)amino)-1H-pyrazol-1-yl)ethanol] | JAK1 = 39 | 100 to 1000 nM | < 100 nM | 1000 to 10000 nM | 100 to 1000 nM | – | –
CC(=O)N1CCC[C@@H]1CNc1nc(Nc2cnn(C)c2)ncc1Cl [Example 1, (R)-1-(2-(((5-chloro-2-((1-methyl-1H-pyrazol-4-yl)amino)pyrimidin-4-yl)amino)methyl)pyrrolidin-1-yl)ethanone] | JAK1 = 8 | 100 to 1000 nM | 1000 to 10000 nM | < 100 nM | < 100 nM | – | –
CC(=O)N1CCC[C@@H]1CNc1nc(Nc2cnn(CCO)c2)ncc1Cl [Example 2, (R)-1-(2-(((5-chloro-2-((1-(2-hydroxyethyl)-1H-pyrazol-4-yl)amino)pyrimidin-4-yl)amino)methyl)pyrrolidin-1-yl)ethanone] | JAK1 = 6 | < 100 nM | 100 to 1000 nM | < 100 nM | < 100 nM | – | –
CS(=O)(=O)N1CCC[C@@H]1CNc1nc(Nc2cnn(CCO)c2)ncc1Cl [Example 6, (R)-2-(4-((5-chloro-4-(((1-(methylsulfonyl)pyrrolidin-2-yl)methyl)amino)pyrimidin-2-yl)amino)-1H-pyrazol-1-yl)ethanol] | – | < 100 nM | 100 to 1000 nM | < 100 nM | < 100 nM | Tyk2 = 11 | –

Further lines, results first:

Selectivity ratio over JAK2, JAK1 [1] | IC50 [1] | IC50 [2] | IC50 [3] | IC50 [4] | Selectivity ratio over JAK2, Tyk2 [4] | Selectivity ratio over JAK2, JAK3 ([3]; JAK3 over JAK2) | Structure (SMILES)
– | 100 to 1000 nM | 1000 to 10000 nM | 100 to 1000 nM | 100 to 1000 nM | Tyk2 = 10 | – | C=CC(=O)N1CCC[C@@H]1CNc1nc(Nc2cnn(C)c2)ncc1Cl [Example 3, (R)-1-(2-(((5-chloro-2-((1-methyl-1H-pyrazol-4-yl)amino)pyrimidin-4-yl)amino)methyl)pyrrolidin-1-yl)prop-2-en-1-one]
– | < 100 nM | 100 to 1000 nM | 100 to 1000 nM | < 100 nM | Tyk2 = 8 | – | C=CC(=O)N1CCC[C@@H]1CNc1nc(Nc2cnn(CCO)c2)ncc1Cl [Example 4, (R)-1-(2-(((5-chloro-2-((1-(2-hydroxyethyl)-1H-pyrazol-4-yl)amino)pyrimidin-4-yl)amino)methyl)pyrrolidin-1-yl)prop-2-en-1-one]
JAK1 = 13 | < 100 nM | 100 to 1000 nM | < 100 nM | < 100 nM | – | – | Cn1cc(Nc2ncc(Cl)c(NC[C@H]3CCCN3S(C)(=O)=O)n2)cn1 [Example 5, (R)-5-chloro-N^2-(1-methyl-1H-pyrazol-4-yl)-N^4-((1-(methylsulfonyl)pyrrolidin-2-yl)methyl)pyrimidine-2,4-diamine]
– | 100 to 1000 nM | 1000 to 10000 nM | < 100 nM | 100 to 1000 nM | – | JAK3 = 100 | C=CS(=O)(=O)N1CCC[C@@H]1CNc1nc(Nc2cnn(C)c2)ncc1Cl [Example 7, (R)-5-chloro-N^2-(1-methyl-1H-pyrazol-4-yl)-N^4-((1-(vinylsulfonyl)pyrrolidin-2-yl)methyl)pyrimidine-2,4-diamine]
JAK1 = 17 | 100 to 1000 nM | 1000 to 10000 nM | 100 to 1000 nM | 100 to 1000 nM | – | – | CC(=O)N1CCC[C@H]1CNc1nc(Nc2cnn(C)c2)ncc1Cl [Example 8, (S)-1-(2-(((5-chloro-2-((1-methyl-1H-pyrazol-4-yl)amino)pyrimidin-4-yl)amino)methyl)pyrrolidin-1-yl)ethanone]
JAK1 = 25 | 100 to 1000 nM | 1000 to 10000 nM | 100 to 1000 nM | 100 to 1000 nM | – | – | CC(=O)N1CCC[C@H]1CNc1nc(Nc2cnn(CCO)c2)ncc1Cl [Example 9, (S)-1-(2-(((5-chloro-2-((1-(2-hydroxyethyl)-1H-pyrazol-4-yl)amino)pyrimidin-4-yl)amino)methyl)pyrrolidin-1-yl)ethanone]
